{"source": "paper PMC7854658", "about": "“Structural basis for ligand recognition of the neuropeptide Y Y2 receptor” (Nature Communications, 2021)", "key": {"Y2R": {"test_system": "Y2R", "design": "method as in earlier work", "conditions": "ref Swanson, D.M. et al., Bioorg. Med. Chem. Lett. 21:5552-5556, 2011; read-out: Y2R affinity IC50; cited from earlier work"}, "NPY receptors": {"test_system": "NPY receptors", "conditions": "cited from earlier work"}, "wild-type Y2R [1]": {"target": "T1, wild-type Y2R (Homo sapiens, UniProt P49146)", "T1 construct": "expressed in transfected cells; host or cells: HEK293", "T1 sequence (P49146 1-381)": "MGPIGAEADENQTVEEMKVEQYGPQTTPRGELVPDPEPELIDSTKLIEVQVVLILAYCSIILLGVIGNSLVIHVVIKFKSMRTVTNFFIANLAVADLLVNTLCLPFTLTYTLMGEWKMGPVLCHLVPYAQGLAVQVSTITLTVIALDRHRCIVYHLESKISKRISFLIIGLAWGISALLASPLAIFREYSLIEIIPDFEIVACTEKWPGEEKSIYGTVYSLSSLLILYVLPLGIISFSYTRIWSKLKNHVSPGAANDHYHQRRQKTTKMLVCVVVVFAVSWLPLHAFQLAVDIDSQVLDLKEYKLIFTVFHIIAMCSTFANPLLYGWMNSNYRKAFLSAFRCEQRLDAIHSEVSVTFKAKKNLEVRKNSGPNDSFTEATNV", "assay": "Dose-dependent inhibition of NPY (0.3 nM)-induced IP accumulation", "assay_type": "cell-based", "conditions": "read-out: pIC50 ± SEM, inhibition of NPY-induced IP accumulation (converted)", "description": "To determine the contribution of residues to antagonist binding, IP-One accumulation assays (Cisbio, Codolet, France) were performed. […] The cells were then reseeded into white 384-well microplates (Greiner Bio-One, Kremsmünster, Austria) at a density of 15,000 cells per well and grown for additional 24 h. […] Three microliters of both solutions were added, and the cells were incubated on a tumbler for 60 min."}, "[2]": {"target": "T2, modified Y2R used for crystallization without N-terminal T4L (Construct_no T4L) (Homo sapiens, UniProt P49146, DEL251-256/H149Y/S280C)", "T2 construct": "eYFP (from the vector name) (C); expressed in transfected cells; host or cells: HEK293 (membrane preparations)", "T2 sequence (P49146 with tags, fused parts or gaps H149Y/DEL251-256/S280C)": "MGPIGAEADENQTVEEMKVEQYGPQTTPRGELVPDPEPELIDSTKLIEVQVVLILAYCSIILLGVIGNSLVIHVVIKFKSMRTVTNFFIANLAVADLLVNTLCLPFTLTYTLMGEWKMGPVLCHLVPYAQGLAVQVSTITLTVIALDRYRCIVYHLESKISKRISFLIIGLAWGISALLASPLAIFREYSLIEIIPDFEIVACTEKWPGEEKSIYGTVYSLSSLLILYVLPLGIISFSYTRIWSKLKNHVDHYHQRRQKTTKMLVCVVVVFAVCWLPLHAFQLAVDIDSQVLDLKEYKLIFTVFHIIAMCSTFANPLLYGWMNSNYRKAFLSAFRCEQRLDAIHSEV", "assay": "NanoBRET-based binding assay (K18(TAMRA)-NPY)", "conditions": "300 nM K18(TAMRA)-NPY", "description": "(§1) For this purpose, a Nanoluciferase[44] (Promega, Madison, WO, USA) followed by a flexible […] terminus of the receptor in an Y2-eYFP_N1 vector[45]. The Nanoluciferase replaced the similarly sized N-terminal T4L fusion in the crystallization construct. To facilitate correct expression of this large N-terminal domain and export to the plasma membrane, a signal sequence of human interleukin 6 ([…]) was used[44]. HEK293 cells were transiently transfected with 8 μg of the corresponding vectors per T75 flask using MetafectenePro (Biontex) following the manufacturer's instructions. Twenty-four hours post transfection, the cells were harvested in PBS (-Ca^2+; -Mg^2+) and frozen (-80 °C). The membranes were prepared as described previously. Briefly, the cells were lysed in a hypotonic TRIS buffer (50 mM Tris-HCl, pH 7.5 and 50 μM Pefabloc SC) and homogenized using a manual dounce homogenizer for 15 times. Nuclei and cell debris was removed by centrifugation at 820 × g for 10 min (4 °C), and the microsomal membranes in the supernatant were collected by centrifugation at 20,000 × g for 60 min (4 °C). […] The total protein amount was determined by a Bradford assay. The membrane preparations were stored in aliquots at -80 °C. […] Directly before the measurement, 10 μl coelenterazine H in HBSS/HEPES was added to a final concentration of 4 μM. […] The BRET ratio was calculated by the ratio of F/L, and corrected by the background values. The IC50 values were determined using a three-parameter logistic fit in the GraphPad Prism 5 software (GraphPad Software, San Diego, CA, USA)."}, "wild-type Y2R [3]": {"target": "T1, wild-type Y2R", "assay": "NanoBRET-based binding assay (K18(TAMRA)-NPY)", "conditions": "read-out: pIC50 ± SEM, NanoBRET binding (converted)", "description": "as §1"}, "Y2R mutant Q130^3.32H": {"target": "T3, Y2R mutant Q130^3.32H (Homo sapiens, UniProt P49146, Q130H)", "T3 construct": "expressed in transfected cells; host or cells: HEK293", "T3 sequence (P49146 whole entry Q130H)": "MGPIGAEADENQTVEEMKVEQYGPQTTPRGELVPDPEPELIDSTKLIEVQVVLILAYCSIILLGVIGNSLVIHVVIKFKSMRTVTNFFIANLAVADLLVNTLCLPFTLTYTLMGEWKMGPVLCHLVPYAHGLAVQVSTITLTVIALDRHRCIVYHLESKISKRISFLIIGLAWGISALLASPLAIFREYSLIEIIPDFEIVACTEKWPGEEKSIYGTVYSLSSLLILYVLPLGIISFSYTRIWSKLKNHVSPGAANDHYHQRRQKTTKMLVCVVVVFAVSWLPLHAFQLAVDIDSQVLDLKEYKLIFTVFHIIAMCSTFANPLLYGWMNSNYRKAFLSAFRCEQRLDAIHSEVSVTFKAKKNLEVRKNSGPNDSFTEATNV", "assay": "NPY-induced IP accumulation (IP-One), mutant", "assay_type": "cell-based", "conditions": "1 μM antagonist", "description": "The plasmid hY2R_eYFP_pVitro2 encoding the WT Y2R and a fluorophore for investigating the receptor localization was used as template for the generation of receptor point mutations as previously described. Mutagenesis PCR was performed using the Phusion High-Fidelity Polymerase (Thermo Fisher Scientific, Waltham, MA, USA). […] The preparations of the plasmid DNA were performed using the Wizard plus Mini or Midi DNA purification kit (Promega, Madison, WI, USA).\n(§2) To determine the contribution of residues to antagonist binding, IP-One accumulation assays (Cisbio, Codolet, France) were performed. HEK293 cells were seeded into six-well plates and transiently cotransfected with 3200 ng of receptor plasmid DNA and 800 ng of the chimeric G protein (Gα∆6qi4myr) to redirect the Gαi signaling pathway to the Gαq phospholipase C pathway. Transient transfection was carried out using Metafectene as transfection reagent according to the manufacturer’s protocol (Biontex, Munich, Germany) over night. The cells were then reseeded into white 384-well microplates (Greiner Bio-One, Kremsmünster, Austria) at a density of 15,000 cells per well and grown for additional 24 h.\nAll dilutions were performed in HBSS containing 20 mM LiCl (stimulation buffer) and DMSO with a final concentration of 0.01%.\nTo determine the amount of cellular IPs, the FRET acceptor (IP1-d2) and the FRET donor (anti-IP1-Cryptate) were reconstituted and diluted in lysis and detection buffer (1:20) as described in the manufacturer’s protocol. Three microliters of both solutions were added, and the cells were incubated on a tumbler for 60 min."}, "[4]": {"target": "T4, Y2R crystallization construct without flavodoxin in ICL3 (construct_no flavodoxin) (Homo sapiens, UniProt P49146, H149Y/S280C)", "T4 construct": "expressed in transfected cells; host or cells: HEK293", "T4 sequence (P49146 1-353 H149Y/S280C)": "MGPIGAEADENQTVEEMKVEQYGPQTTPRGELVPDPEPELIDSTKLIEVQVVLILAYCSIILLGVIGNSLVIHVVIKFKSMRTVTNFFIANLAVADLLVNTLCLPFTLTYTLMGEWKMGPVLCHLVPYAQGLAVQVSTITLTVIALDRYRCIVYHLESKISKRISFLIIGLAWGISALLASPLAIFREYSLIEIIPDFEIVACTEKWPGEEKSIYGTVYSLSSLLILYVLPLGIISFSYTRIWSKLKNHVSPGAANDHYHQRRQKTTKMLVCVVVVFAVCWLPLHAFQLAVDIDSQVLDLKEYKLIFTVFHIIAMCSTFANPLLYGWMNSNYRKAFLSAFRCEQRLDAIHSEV", "assay": "Dose-dependent inhibition of NPY (0.3 nM)-induced IP accumulation", "assay_type": "cell-based", "conditions": "read-out: pIC50 ± SEM, inhibition of NPY-induced IP accumulation (converted)", "description": "as §2, with “([…])” for “(Gα∆6qi4myr)”, “manufacturer's” for “manufacturer’s”, “h. […] The cells were stimulated at 37 °C and 5% CO2 in humidified atmosphere for 90 min. The exact value of the effective concentration (ECx) at the day of the assay was determined by control curves in the absence of antagonist. To determine the amount of cellular IPs, the FRET acceptor (IP1-d2) and the FRET donor (anti-IP1-Cryptate) were reconstituted and diluted in lysis and detection buffer (1:20) as described in the manufacturer's protocol. Three microliters of both solutions were added, and the cells were incubated on a tumbler for 60 min.” for “h.”"}, "[5]": {"target": "Y2R mutant D292^6.59N (hY2R_eYFP_pVitro2) (human) (UniProt P49146)"}, "[6]": {"target": "Y2R mutant Q130^3.32H (hY2R_eYFP_pVitro2) (human) (UniProt P49146)"}, "[7]": {"target": "Y2R mutant Y110^2.64A (hY2R_eYFP_pVitro2) (human) (UniProt P49146)"}, "[8]": {"target": "wild-type human Y2R with C-terminal eYFP (hY2R_eYFP_pVitro2) (human) (UniProt P49146)"}}, "note": "Read-outs that look alike come from different tables or passages of the source."}
{"compound": "CCN(CC)C(=O)C(c1ccccc1)N1CCN(c2ccc(NC(=O)c3ccccc3-c3cccnc3)cc2F)CC1", "note": "(single isomer, unassigned) [S-isomer]", "values": [{"measurement": "IC50", "setting": "Y2R", "result": "14 ± 3", "unit": "nM"}]}
{"compound": "CCN(CC)C(=O)C(c1ccccc1)N1CCN(c2ccc(NC(=O)c3ccccc3-c3cccnc3)cc2F)CC1", "note": "(single isomer, unassigned) [R-isomer]", "values": [{"measurement": "IC50", "setting": "Y2R", "result": "9 ± 2", "unit": "nM"}]}
{"compound": "CCN(CC)C(=O)C(c1ccccc1)N1CCN(c2ccc(NC(=O)c3ccccc3-c3cccnc3)cc2F)CC1", "note": "(stereo not shown) [JNJ-31020028, N-(4-{4-[2-(diethylamino)-2-oxo-1-phenylethyl]piperazin-1-yl}-3-fluorophenyl)-2-pyridin-3-ylbenzamide]", "values": [{"measurement": "Higher binding affinity to Y2R over the other NPY receptors", "setting": "NPY receptors", "result": "over 100 fold"}, {"measurement": "IC50", "setting": "wild-type Y2R [1]", "result": 47.9, "unit": "nM"}, {"measurement": "IC50", "setting": "[2]; read-out: IC50, NanoBRET binding", "result": 0.7, "unit": "nM"}, {"measurement": "IC50", "setting": "[2]; read-out: pIC50 ± SEM, NanoBRET binding (converted)", "result": 0.676, "unit": "nM"}, {"measurement": "IC50", "setting": "wild-type Y2R [3]", "result": 1.29, "unit": "nM"}, {"measurement": "Antagonistic activity compared to WT (in words)", "setting": "Y2R mutant Q130^3.32H", "result": "increased antagonistic activity"}, {"measurement": "IC50", "setting": "[4]", "result": 60.3, "unit": "nM"}]}
{"compound": "neuropeptide Y (NPY) (from UniProt P01303 29-64)", "values": [{"measurement": "fold change of the EC50 of NPY in triggering Y2R signaling (IP accumulation) against the wild-type Y2R", "setting": "[5]", "result": 233, "unit": "fold"}, {"measurement": "fold change of the EC50 of NPY-induced receptor signaling (IP accumulation) against the wild-type Y2R", "setting": "[6]", "result": 132, "unit": "fold"}, {"measurement": "EC50 of NPY-induced IP accumulation (IP-One assay, HEK293 cells with chimeric G protein)", "setting": "[7]", "result": 1.8, "unit": "nM"}, {"measurement": "EC50 of NPY-induced IP accumulation (IP-One assay, HEK293 cells with chimeric G protein)", "setting": "[8]", "result": 0.06, "unit": "nM"}]}
